Legend:
[1] = target: dipeptidyl peptidase (DP IV) (UniProt P27487); assay: Determination of IC50 against DP IV (hydrolysis of Gly-Pro-pNA); type: biochemical, porcine kidney or recombinant human; settings: compounds obtained by preparative synthesis
In short: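 Porcine kidney or recombinant human DP IV (about 40–50 μU/ml) in HEPES pH 7.6 (I=0.32) with Gly-Pro-pNA at room temperature, 5% DMSO, 11 twofold dilutions from 100 μM final. pNA release at 405 nm over ~18 min; slopes give residual activity versus solvent, IC50 by 4-parameter fit.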

DPII = DPII (Homo sapiens, UniProt Q9UHL4); assay: DPII assay; type: biochemical; settings: for Selectivity DPII(IC50)/DPIV(Ki): ratio IC50 DPII / Ki DP IV
Description: Determination of IC50 values for DPII and DP9 are done similarly as described for DP IV.
For DPII instead of the HEPES buffer a 0.2 M sodium acetate buffer pH 5.5 is used. As substrate Gly-Pro-AMC is used in a final concentration of 1 mM.

[2] = system: liver cell carcinoma cell line Hep-G2; assay: Cytotoxicity screening and LD50 determination on Hep-G2 (LDH, CytoTox-One); type: cell-based; settings: for Cytotox 100 μM (%) HEPG2 / Viability 100 μM (%) HEP-G2: 24 h; for Cytotox 100 μM (%) HEPG2: LDH activity in cell culture media, lysed untreated cells = 100%; for Viability 100 μM (%) HEP-G2: LDH of lysed cells, untreated control = 100%; for Cytotox 100 μM (%) HEPG2 / Viability 100 μM (%) HEP-G2 / Observed cytotox: 100 μM; for Observed cytotox: Hep-G2, observation of the cells; for LD50 Viability HEP-G2 / LD50 cytotox HEP-G2: 8 serial dilutions, highest concentration 1 mM
In short: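 Hep-G2 cells (50 000/well) precultured 24 h, then compound in DMSO (final 1%) added for 24 h. Screen at 100 μM, 2 μM, 40 nM in triplicate. LDH in medium gave cytotoxicity (untreated 0%, lysed 100%); LDH of lysed cells gave viability. LD50 from 8 serial dilutions, top 1 mM.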

[3] = system: neuroblastoma cell line SY5Y; assay: LD50 determination on SY5Y (LDH); type: cell-based; settings: 8 serial dilutions, highest concentration 1 mM
Description: After 24 h of cultivation in a 96 well plate (50 000 cells/well) compounds (dissolved in DMSO) are added and cytotoxicity and vitality of the cells are analysed after another 24 h of cultivation using the CytoTox-One Homogenoeous membrane toxicity assay (Promega).
For cytotoxicity the LDH activity in the cell culture media after 24 h of incubation are analysed. The untreated control is set to 0% cytotoxicity. For the 100% value LDH activity of lysed untreated cells are analysed.
For viability cell culture media are removed from the cells and all cells are lysed using the lysis buffer. LDH activity is determined and untreated control is set to 100% viability.
For determination of LD50 the liver carcinoma cell line HEP-G2 and the neuroblastoma cell line SY5Y may be used. The effect of 8 serial dilutions of the compounds (highest concentration 1 mM) is investigated as described above.

DP IV = DP IV (Homo sapiens, UniProt P27487); assay: DP IV inhibition IC50, parallel-synthesis compounds tested directly following synthesis (without purification); type: biochemical; parameters: IC50 DP4; other: tested directly following parallel synthesis, without purification; compounds of formula (Ib) from parallel synthesis, tested directly following synthesis; settings: DP IV inhibition; compounds of formula (Ib) from parallel synthesis, tested directly following synthesis (without purification); read-out: IC50
In short: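 Porcine kidney or recombinant human enzyme (~40-50 μU/ml, HEPES buffer) hydrolysing Gly-Pro-pNA at room temperature, with 5% DMSO final; 11-point 1:2 dilutions from 100 μM final, in duplicate. pNA release read at 405 nm over ~18 min; slopes vs solvent control give residual activity, and IC50 comes from a 4-parameter fit.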

[4] = sodium acetate buffer pH 5.5, Gly-Pro-AMC 1 mM

Structure (SMILES) | IC50 [1] | Selectivity DPII(IC50)/DPIV(Ki) (DPII) | IC50 (DPII; [4]) | Cytotox 100 μM (%) HEPG2 [2] | Viability 100 μM (%) HEP-G2 [2] | Observed cytotox [2] | LD50 Viability HEP-G2 [2] | LD50 cytotox HEP-G2 [2] | LD50 Viability SY5Y [3] | LD50 cytotox SY5Y [3] | IC50 (DP IV) | IC50 (DPII; values >1e−4 are extrapolated values) | Ki (DPII)
NCc1c(-c2ccc(Cl)cc2Cl)ncn1Cc1ccccc1 [Example 24b, (1-benzyl-4-(2,4-dichlorophenyl)-1H-imidazol-5-yl)methanamine] | 123 nM | 6,329 | 30000 nM | 5.9% | 119.2% | 10% spheric | 0.20 mM | 0.18 mM | 0.11 mM | 0.19 mM | 900 nM | – | –
NCc1c(-c2ccc(Cl)cc2Cl)ncn1Cc1ccccn1 [Example 39b] | 59 nM | >176,056 | > 100000 nM | 3.9% | 115.7% | 20% spheric | 0.80 mM | 0.74 mM | 0.29 mM | 0.60 mM | 4600 nM | – | –
NCc1c(-c2ccc(Cl)cc2Cl)ncn1Cc1cccnc1 [Example 121b, (4-(2,4-dichlorophenyl)-1-((pyridin-3-yl)methyl)-1H-imidazol-5-yl)methanamine] | 83 nM | 41,216 | – | 0% | 104.0% | – | 1.05 mM | 0.92 mM | 0.46 mM | 0.68 mM | 4600 nM | 122000 nM | –
NCc1c(-c2ccc(Cl)cc2Cl)ncn1Cc1ccsc1 [Example 130b, (4-(2,4-dichlorophenyl)-1-((thiophen-3-yl)methyl)-1H-imidazol-5-yl)methanamine] | 62 nM | 186 | 1430 nM | – | – | – | 0.24 mM | 0.21 mM | 0.17 mM | 0.28 mM | – | – | 3840 nM
